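Method: 48-hour compound exposure of cells in 96-well plates, five concentrations, linear interpolation of endpoints. TGI: concentration producing complete growth inhibition.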
How the values were obtained:
Assay in all cases: NCI tumour cell line growth inhibition, 48 h
RPMI-8226 leukemia = tested on: RPMI-8226 leukemia
HL-60(TB) leukemia = tested on: HL-60(TB) leukemia
NCI-H460 lung = tested on: NCI-H460 lung
CAKI-1 renal = tested on: CAKI-1 renal
UACC-257 melanoma = tested on: UACC-257 melanoma
M19-MEL melanoma = tested on: M19-MEL melanoma
IGROV1 ovarian = tested on: IGROV1 ovarian
RXF-631 renal = tested on: RXF-631 renal
SF-295 CNS = tested on: SF-295 CNS
M14 melanoma = tested on: M14 melanoma
ACHN renal = tested on: ACHN renal
OVCAR-5 ovarian = tested on: OVCAR-5 ovarian
DMS 273 small cell lung = tested on: DMS 273 small cell lung
HCT-116 colon = tested on: HCT-116 colon
OVCAR-8 ovarian = tested on: OVCAR-8 ovarian
MALME-3M melanoma = tested on: MALME-3M melanoma
KM20L2 colon = tested on: KM20L2 colon
NCI-H23 lung = tested on: NCI-H23 lung
A498 renal = tested on: A498 renal
SNB-19 CNS = tested on: SNB-19 CNS
SK-MEL-5 melanoma = tested on: SK-MEL-5 melanoma
HT29 colon = tested on: HT29 colon
NCI-H522 lung = tested on: NCI-H522 lung
MOLT-4 leukemia = tested on: MOLT-4 leukemia
SNB-75 CNS = tested on: SNB-75 CNS
K-562 leukemia = tested on: K-562 leukemia
786-0 renal = tested on: 786-0 renal
SK-OV-3 ovarian = tested on: SK-OV-3 ovarian
COLO 205 colon = tested on: COLO 205 colon
DMS 114 small cell lung = tested on: DMS 114 small cell lung
HCT-15 colon = tested on: HCT-15 colon
HOP-18 NSCLC = tested on: HOP-18 NSCLC
SF-539 CNS = tested on: SF-539 CNS
SK-MEL-2 melanoma = tested on: SK-MEL-2 melanoma
U251 CNS = tested on: U251 CNS
RXF 393 renal = tested on: RXF 393 renal
KM12 colon = tested on: KM12 colon
EKVX NSCLC = tested on: EKVX NSCLC
LOX IMVI melanoma = tested on: LOX IMVI melanoma
OVCAR-3 ovarian = tested on: OVCAR-3 ovarian
TK-10 renal = tested on: TK-10 renal
SF-268 CNS = tested on: SF-268 CNS
A549 NSCLC = tested on: A549 NSCLC
SW-620 colon = tested on: SW-620 colon
SK-MEL-28 melanoma = tested on: SK-MEL-28 melanoma
SNB-78 CNS = tested on: SNB-78 CNS
DLD-1 colon = tested on: DLD-1 colon
SN12C renal = tested on: SN12C renal
XF 498 CNS = tested on: XF 498 CNS
CCRF-CEM leukemia = tested on: CCRF-CEM leukemia
UO-31 renal = tested on: UO-31 renal
OVCAR-4 ovarian = tested on: OVCAR-4 ovarian
HCC-2998 colon = tested on: HCC-2998 colon
NCI-H226 lung = tested on: NCI-H226 lung
SR leukemia = tested on: SR leukemia
UACC-62 melanoma = tested on: UACC-62 melanoma
LXFL 529 NSCLC = tested on: LXFL 529 NSCLC
HOP-92 NSCLC = tested on: HOP-92 NSCLC
HOP-62 NSCLC = tested on: HOP-62 NSCLC

Measured: TGI

Cc1cccc(C)c1NC(=O)CCC(=O)NNc1nnc(C)n1N
> 100 µM: all assays above

Cc1ccc(N=Nc2c(C)nn(-c3ccccc3)c2C)c(Br)c1
not listed: NCI-H522 lung | UO-31 renal | SR leukemia
> 100 µM: all other assays above
